Experiment [1] relates to tetracycline inducible gene expression system (CHO-K1 Tet-IGF1 cells). Description: DOX-induced IGF-1 release from CHO-K1 Tet-IGF1 cells (ELISA). The class given is cell-based, Chinese hamster. The settings on record: encapsulated and unencapsulated CHO-K1 Tet-IGF1 cells, 24 hours. The protocol: Chinese hamster ovary cells (CHO-K1 Tet-On, Clontech Laboratories, Mountain View, Calif.), stably transfected to express the transactivator protein (rtTA) for a tetracycline inducible gene expression system, were cultured at 37° C. and 5% CO2 in DMEM supplemented with 10% tetracycline-free FBS (Clontech), 1% penicillin/streptomycin (Invitrogen, Carlsbad, Calif.), and 200 μg/mL G418 (Sigma-Aldrich). All cell counting was done using Trypan Blue exclusion and the COUNTESS® Automated Cell Counter (Invitrogen). […]
The quantity of human IGF-1 from each supernatant sample was determined using ELISA (R&D Systems, Minneapolis, Minn.) and SPECTRAMAX® Absorbance plate reader (Molecular Devices, Sunnydale, Calif.). All samples were run in triplicate and amount released was normalized to one million viable cells per sample as counted at the end of each study.
Modified and unmodified cells were plated in 6-well tissue culture plates at a density of 3×10^5 cells per well (n=6 per cell type). […] At the end of the study, cells were trypsinized and counted.
Modified encapsulated and unencapsulated cells were plated into 12-well tissue culture plates. […] At the end of the study, cells were trypsinized and counted.
Encapsulated modified and unmodified cells were plated in 12-well tissue culture plates at an equal density per well and cultured at 32° C. […] On day 10, capsules were solubilized and cells were counted.
(In general: In an ELISA, binding on a coated surface is turned into a signal by an enzyme label.)

The subject of the next experiment is CHO-K1 Tet-IGF1 cells. Description: Co-culture of CHO-K1 Tet-IGF1 cells with DOX loaded PLGA microspheres or bolus DOX, IGF-1 ELISA. The class given is cell-based, Chinese hamster. The settings on record: total 2 μg DOX over 24 hours, unencapsulated and encapsulated cultures. The protocol: Cells were encapsulated and encapsulated cell count and viability were determined as described in Examples 1 and 2. Microencapsulated and unencapsulated CHO-K1 Tet-IGF1 cells were co-cultured with DOX loaded PLGA microspheres to assess DOX-inducible IGF-1 synthesis and delivery. Approximately 5×10^5 encapsulated or 5×10^4 unencapsulated cells were plated per well in 12-well plates. After incubating cultures for 24 hours at 37° C., medium was completely removed from each well and 2 mL fresh media containing one of the following was added to each well (n=3): 1 μg/mL DOX (Clontech), 1.6 mg of DOX loaded PLGA microspheres, 1.6 mg of unloaded PLGA control microspheres, or no DOX. The mass of spheres used in these studies was calculated to release a total of 2 μg of DOX after 24 hours of incubation as determined by the results of the cumulative in vitro release. Cultures were incubated for another 24 hours, at which time the supernatant from each culture was removed and stored at −20° C. for later measurement. For unencapsulated cultures, cells were trypsinized and counted using Trypan Blue exclusion. For encapsulated cultures, cells were collected via alginate solubilization prior to counting. IGF-1 was quantified as described in Example 2.

Where a name gives a salt, the structure may show the parent alone. Some results are limits rather than exact numbers.

Regarding `C[C@H]1c2cccc(O)c2C(=O)C2=C(O)[C@]3(O)C(=O)C(C(N)=O)=C(O)[C@@H](N(C)C)[C@@H]3[C@@H](O)[C@@H]21` [DOX, doxycycline hydrochloride], the “DOX concentration giving detectable IGF-1 release” value in experiment [1] was at least 0.125 µg/mL. The “IGF-1 synthesis and delivery after 24 hours” value with CHO-K1 Tet-IGF1 cells is given as “induced”.

The values above are taken from patent publication US20130189366A1, “DRUG DELIVERY SYSTEMS AND METHODS OF USE” (Brown University, priority 2012, published 2013).
